# Where a name gives a salt, the structure may show the parent alone. Read-outs that look alike come from different tables or passages of the source.
# Tests used:
# [1] = tested on: Ba/F3.p210 cells; assay: Selection for resistant Ba/F3.p210 clones; format: cell-based; details: 1 μM imatinib or 5 or 10 μM GNF-2; day nine
# [2] = tested on: BCR-ABL transformed cells; details: read-out: IC50, cellular activity against BCR-ABL transformed cells; cited from earlier work
# [3] = tested on: 40 other tyrosine kinases; details: cited from earlier work
# [4] = tested on: panel of 80 diverse kinases; details: cited from earlier work
# [5] = Pharmacokinetic parameters in mice; format: in vivo; details: for bioavailability / concentration at 7 h: Balb/c, po, 20 mg/kg; for AUC(0-inf): oral, 5 mg/kg intravenously or 20 mg/kg orally
# Method: The compound plasma concentration at any given time point was determined by Liquid Chromatography/Mass Spectrometry (LC/MS/MS). Pharmacokinetic parameters were calculated by non-compartmental regression analysis using Winnonlin 4.0 software (Pharsight, Mountain View, Calif., USA).
# [6] = tested on: Ba/F3 cells co-expressing BCR-ABL p210 and luciferase; assay: In vivo efficacy in Ba/F3.p210 xenograft model; design: species or system SCID beige mice
# Method: Female SCID beige mice, 6-8 weeks of age (n=5 for each GNF-5-treated or vehicle control group) were injected via tail vein with 1×10^6 Ba/F3 cells co-expressing BCR-ABL p210 and luciferase. […] At days 5 and 7, bioluminescence was quantified using luciferin and an IVIS imaging system (Xenogen Corp., Alameda, Calif.).
# Disease was established in SCID beige mice by inoculation of Ba/F3 cells engineered to express wild-type p210 BCR-ABL and firefly luciferase, such that disease burden could be assessed after luciferin injection by non-invasive imaging using a Xenogen IVIS™ system. […] Responses were maintained within the 100 mg/kg group (T/C=17%) at day 7; however, the initial response to the 50 mg/kg b.i.d. regime was followed by a relapse (T/C of 66%) (FIG. 3A).
# [7] = tested on: phospho-Stat5 (downstream BCR-ABL signaling); assay: In vivo target modulation, phospho-Stat5 in bone marrow of Ba/F3.p210-bearing mice; details: single dose 100 mg/kg; within 7 hours
# Method: Bone marrows were harvested after 3, 7 and 24 hours and were analyzed by flow cytometry for phospho-Stat5 levels using a specific phospho-Y694 antibody.
# [8] = tested on: T315I BCR-ABL-mediated Stat5 phosphorylation; assay: T315I BCR-ABL-mediated Stat5 phosphorylation by flow cytometry; format: cell-based
# [9] = tested on: wild type BCR-ABL transduced bone marrow; assay: Bone marrow transduction/transplantation model, wild type BCR-ABL; format: in vivo, Balb/c mice; details: 50 mg/kg twice daily for seven days, from day 7 after transplantation
# [10] = tested on: T315I BCR-ABL transduced bone marrow; format: in vivo; details: b.i.d. nilotinib 50 mg/kg or GNF-5 75 mg/kg alone; seven days
# [11] = tested on: T315I BCR-ABL transduced bone marrow; assay: Survival study, T315I BCR-ABL bone marrow transplantation model; format: in vivo, mice; details: GNF-5 75 mg/kg b.i.d. or nilotinib 50 mg/kg b.i.d.; vehicle 22 days
# [12] = tested on: p-Stat5 in T315I BCR-ABL expressing bone marrow cells; assay: p-Stat5 positive bone marrow cells in T315I BCR-ABL transplantation model; details: end of efficacy study; nilotinib 50 mg/kg, GNF-5 75 mg/kg b.i.d. alone or combined
# [13] = tested on: CML; details: in vivo; cited from earlier work
# [14] = male, mouse, plasma, Balb/c mice, oral 20 mg/kg
smiles,measurement,setting,value
"NC(=O)c1cccc(-c2cc(Nc3ccc(OC(F)(F)F)cc3)ncn2)c1 [GNF-2, 3-[6-(4-Trifluoromethoxy-phenylamino)-pyrimidin-4-yl]-benzamide]","emergence of resistant colonies, single agent",[1],emergence of resistant colonies
same,IC50,[2],140 nM
same,inhibition of the activity of 40 other tyrosine kinases in cellular assays,[3],did not inhibit
same,inhibition of the biochemical activity of a panel of 80 diverse kinases,[4],did not inhibit
"O=C(NCCO)c1cccc(-c2cc(Nc3ccc(OC(F)(F)F)cc3)ncn2)c1 [GNF-5, N-(2-hydroxyethyl)-3-(6-(4-(trifluoromethoxy)phenylamino)pyrimidin-4-yl)benzamide]",T½,"[5]; Balb/c mice, oral 20 mg/kg",2.30 ± 0.10 h
same,bioavailability,"[5]; male, mouse, plasma, Balb/c mice, 20 mg/kg oral vs 5 mg/kg intravenous, read-out: F (%)",44.8 ± 7.54%
same,concentration at 7 h,"[5]; male, mouse, plasma, Balb/c mice, oral 20 mg/kg, 7 hours, read-out: Clast",636 ± 121 nM
same,concentration at 7 h,"[5]; male, mouse, plasma, oral 20 mg/kg, Balb-C mice, read-out: concentration after 7 hours",630 ± 120 nM
same,bioavailability,"[5]; male, mouse, plasma, oral 20 mg/kg, Balb-C mice, read-out: oral bioavailability",44.8 ± 7.5%
same,AUC(0-inf),"[5]; male, mouse, plasma, Balb/c mice, route not given, read-out: AUC_inf (hrs * nM)",11.6 ± 1.96 µM·h
same,AUC(0-inf),"[5]; male, mouse, plasma, Balb/c mice, route not given, read-out: AUC_inf (min * ug/mL) (converted)",4870 ng·h/mL
same,Cmax,[5]; [14],4370 ± 1340 nM
same,Tmax,[5]; [14],0.5 h
same,Vd,"[5]; male, mouse, plasma, Balb/c mice, route not given, read-out: Vss",9.18 ± 1.82 L/kg
same,half-life,"[5]; male, mouse, plasma, oral 20 mg/kg, Balb-C mice, read-out: terminal half-life (converted)",2.3 h
same,maximum concentration,"[5]; oral 20 mg/kg, Balb-C mice",4.4 ± 1.3 µM
same,time of maximum concentration,"[5]; oral 20 mg/kg, Balb-C mice",0.5 h
same,tumor/control (T/C),"[6]; 50 mg/kg b.i.d. oral, day 7 (relapse)",66%
same,tumor/control (T/C),"[6]; 50 mg/kg b.i.d. oral, fifth day",16%
same,tumor/control (T/C),"[6]; 100 mg/kg b.i.d. oral, day 7",17%
same,tumor/control (T/C),"[6]; 100 mg/kg b.i.d. oral, fifth day",7%
same,tolerability of efficacious doses in vivo,[6]; 50 or 100 mg/kg b.i.d.,well-tolerated
same,pStat5 levels in bone marrow,[7],Significant reduction
same,effect on T315I BCR-ABL-mediated Stat5 phosphorylation,"[8]; 10 μM nilotinib or 1 μM GNF-5 alone, or the two combined",no effect
same,peripheral blood cell counts,[9],normal blood cell counts
same,spleen weight,[9],normal spleen weights
same,response compared to the vehicle group,[10],no significant response
same,median survival,[11],28 days
same,percentage of p-Stat5 positive BCR-ABL expressing bone marrow cells,[12],approx. 25%
Cc1ccc(NC(=O)c2ccc(CN3CCN(C)CC3)cc2)cc1Nc1nccc(-c2cccnc2)n1 [Imatinib mesylate],response rates in CML,[13],more than 96%
"Cc1cn(-c2cc(NC(=O)c3ccc(C)c(Nc4nccc(-c5cccnc5)n4)c3)cc(C(F)(F)F)c2)cn1 [nilotinib, reference compound]",effect on T315I BCR-ABL-mediated Stat5 phosphorylation,[8],no effect
same,response compared to the vehicle group,[10],no significant response
same,median survival,[11],32 days
same,percentage of p-Stat5 positive BCR-ABL expressing bone marrow cells,[12],approx. 25%
